The target in data set [1] is T1, ERβ (estrogen receptor β) (Homo sapiens, UniProt Q92731).
T1 construct: gene ESR2; c-Flag ERβ (OHu25562D; pcDNA3.1+/C-(K) DYK)
Put plainly: ERE-luciferase reporter assay in HEK293T cells transfected with Flag-ERβ (agonist). It is filed as cell-based. (A reporter such as luciferase makes a cellular process visible.)

Data set [2] deals with T2, ERα (estrogen receptor α) (Homo sapiens, UniProt P03372).
T2 construct: gene ESR1; c-Flag ERα (OHu26586D; pcDNA3.1+/C-(K) DYK)
T2 sequence (P03372 1-595): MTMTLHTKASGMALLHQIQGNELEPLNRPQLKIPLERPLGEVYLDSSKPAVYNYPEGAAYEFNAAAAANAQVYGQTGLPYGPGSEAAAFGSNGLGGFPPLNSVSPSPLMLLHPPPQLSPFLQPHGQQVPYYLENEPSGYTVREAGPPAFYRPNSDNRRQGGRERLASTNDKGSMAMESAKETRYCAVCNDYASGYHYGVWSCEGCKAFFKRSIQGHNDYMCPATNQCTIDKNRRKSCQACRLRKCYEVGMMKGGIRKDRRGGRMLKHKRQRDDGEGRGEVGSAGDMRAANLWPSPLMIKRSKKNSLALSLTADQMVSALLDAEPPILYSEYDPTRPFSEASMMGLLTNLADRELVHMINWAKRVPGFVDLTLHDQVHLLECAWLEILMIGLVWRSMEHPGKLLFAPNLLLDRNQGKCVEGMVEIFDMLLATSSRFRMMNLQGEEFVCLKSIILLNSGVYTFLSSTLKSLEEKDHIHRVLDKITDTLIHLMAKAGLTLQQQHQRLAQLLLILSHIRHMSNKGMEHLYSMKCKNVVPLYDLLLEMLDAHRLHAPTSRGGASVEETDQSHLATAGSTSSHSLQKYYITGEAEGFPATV
Put plainly: ERE-luciferase reporter assay in HEK293T cells transfected with Flag-ERα (weaker activation than ERβ). It is filed as cell-based.

These results are taken from publication PMC9097292, “Activity of Estrogen Receptor β Agonists in Therapy-Resistant Estrogen Receptor-Positive Breast Cancer” (Frontiers in Oncology, 2022).

T1 sequence (Q92731 whole entry): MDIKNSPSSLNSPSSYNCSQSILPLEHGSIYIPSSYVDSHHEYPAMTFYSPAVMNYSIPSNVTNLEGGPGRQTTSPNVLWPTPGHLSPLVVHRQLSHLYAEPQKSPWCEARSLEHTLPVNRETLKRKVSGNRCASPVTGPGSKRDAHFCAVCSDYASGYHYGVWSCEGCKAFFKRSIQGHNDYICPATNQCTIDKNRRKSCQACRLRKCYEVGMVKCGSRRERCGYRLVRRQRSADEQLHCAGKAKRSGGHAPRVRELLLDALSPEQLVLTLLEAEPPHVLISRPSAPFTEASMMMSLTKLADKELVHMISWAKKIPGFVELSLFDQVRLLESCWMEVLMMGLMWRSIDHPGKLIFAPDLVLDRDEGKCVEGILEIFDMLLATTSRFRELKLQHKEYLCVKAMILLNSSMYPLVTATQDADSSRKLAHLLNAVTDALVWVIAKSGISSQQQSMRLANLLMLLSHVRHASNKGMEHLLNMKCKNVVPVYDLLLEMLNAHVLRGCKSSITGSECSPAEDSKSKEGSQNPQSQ

For OSU-ERb-12, in data set [1] (hek293t cells, 0.03 µM), the “ERE-luciferase reporter assay in HEK293T cells transfected with Flag-ERβ (agonis)” value is reported as ~ 40 fold activation at 30 nmol/l. Further, the “ERE-luciferase reporter assay in HEK293T cells transfected with Flag-ERα (weaker)” value in data set [2] (hek293t cells, 0.03 µM) was ~ 4 fold activation at 30 nmol/l.
For `Oc1ccc([C@@H]2Oc3ccc(O)cc3[C@@H]3CCC[C@@H]32)cc1` [LY500307], the fold induction at 0.01 µM in data set [1] (HEK-293T, read-out: ERE-luciferase reporter assay in HEK293T cells transfected with Flag-ERβ (agonis)) turned out to be 84; in data set [2] (HEK-293T), 2.1.
